# Laboratory results: the supplement of paper PMC3974653
# Structures can show the parent of a compound that is named as a salt.
# Test system: MTT (mouse pheochromocytoma)
# Experiment: IC50 of cell viability (ATP content)
# Details: (24 or 48 h)
# How it was run: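 MTT mouse pheochromocytoma cells, cultured overnight at 37°C, 5% CO2 in DMEM with 5% FBS and 1% horse serum, were exposed in white 1536-well plates to library compounds in DMSO at final 0.5 nM to 46 µM (8 concentrations) for 24 or 48 hrs. CellTiter-Glo luminescence was normalised to positive-control (100%) and DMSO (0%) wells. A four-parameter logistic fit gave the IC50.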
row,SMILES,IC50 of cell viability [µM]
1,CC(C)(C)c1ccc(O)cc1 [4-T-BUTYLPHENOL FORMALDEHYDE RESIN],> 46
2,CCCCCCCCCCCCCCCCCCNC(=O)OC1CCN(C(=O)OC[C@H](COC(=O)N(Cc2cccc[n+]2CC)C(=O)c2ccccc2OC)OC)CC1 [Minopafant],> 46
3,[K+].C[C@H](OC1=CC=CC=C1)C(=O)N[C@H]2[C@@H]3SC(C)(C)[C@@H]([N@@]3C2=O)C([O-])=O [Phenethicillin potassium salt],> 46
4,CCOC(=O)OCC/C(SC(=O)OCC)=C(\C)N(C=O)Cc1cnc(C)nc1N [CETOTIAMINE HYDROCHLORIDE],> 46
5,CC(C)CC(=O)N[C@H](C(=O)N[C@H](C(=O)N[C@@H](CC(C)C)[C@@H](O)CC(=O)N[C@@H](C)C(=O)N[C@@H](CC(C)C)[C@@H](O)CC(=O)O)C(C)C)C(C)C [PEPSTATINUM],> 46
6,CO[C@@H]1[C@@H]([C@H](C)[C@@H]2O[C@@]3(CC[C@@](C)([C@H]4CC[C@@](C)([C@H]5O[C@H]([C@H]6O[C@](C)(O)[C@H](C)C[C@@H]6C)C[C@H]5O[C@H]5C[C@@H](OC)[C@H](OC)[C@@H](C)O5)O4)O3)C[C@@H](O)[C@@H]2C)O[C@@](O)(CC(=O)[O-])[C@H](C)[C@H]1OC [Maduramicin ammonium],> 46
7,NCCCC(N)C(=O)O [Poly-L-ornithine hydrochloride],> 46
8,N=C(N)c1ccc(OCCCOc2ccc(C(=N)N)cc2)cc1 [Propamidine],> 46
9,O=C(O)CN(CCN(CC(=O)O)CC(=O)O)CC(=O)O [EDETATE CALCIUM DISODIUM],> 46
10,Cc1cc(O)cc2c1O[C@](C)(CCC[C@H](C)CCC[C@H](C)CCCC(C)C)CC2 [Delta-Vitamin E],> 46
11,Cc1c(C)n(CCN(C)C)c2ccc(C(=O)OCCN(C)C)cc12 [AMINDOCATUM],> 46
12,Cc1onc(-c2c(F)cccc2Cl)c1C(=O)NC1C(=O)N2C1SC(C)(C)C2C(=O)[O-].O.[Na+] (configuration not stated) [FLUCLOXACILLIN MAGNESIUM],> 46
13,Cc1ccnc(N[S+](=O)([O-])c2ccc(N)cc2)n1 [Sulfamerazine],> 46
14,O=C(O)[C@@H]1CSCN1 [TIMONACICUM],> 46
15,CCCCc1ncc(/C=C(\Cc2cccs2)C(=O)O)n1Cc1ccc(C(=O)O)cc1 [Eprosartan mesylate],> 46
16,NC(=O)c1ccc[n+]([C@@H]2O[C@@H](CO[P@@](=O)([O-])O[P@@](=O)(O)OC[C@@H]3O[C@@H](n4cnc5c(N)ncnc54)[C@@H](O)[C@H]3O)[C@H](O)[C@@H]2O)c1 [Nadide],> 46
17,COc1cc2nc(N3CCN(C(=O)[C@H]4COc5ccccc5O4)CC3)nc(N)c2cc1OC.C[S+](=O)([O-])O [Doxazosin mesylate],> 46
18,CCCc1c2oc(C(=O)O)cc(=O)c2cc2c(=O)cc(C(=O)O)n(CC)c12 [Nedocromil],> 46
19,N=C(N)NCc1cccc(I)c1 [m-Iodobenzylguanidine hemisulfate],> 46
20,COc1cc(C(=O)OCCCN2CCCN(CCCOC(=O)c3cc(OC)c(OC)c(OC)c3)CC2)cc(OC)c1OC [DILAZEP],> 46
21,CC(=O)O[C@@H]1C[C@]2(C)[C@H](C[C@@H](O)[C@H]3[C@@]4(C)CC[C@@H](O)[C@@H](C)[C@@H]4CC[C@@]32C)/C1=C(\CCC=C(C)C)C(=O)[O-].[Na+] [Fusidic acid sodium salt],> 46

row,SMILES,IC50 of cell viability [µM]
1,CN(C)CCCN1c2ccccc2Sc2ccccc21 [Promazine hydrochloride],> 46
2,CCN(CC)C(=O)c1cc([S+](=O)([O-])Cc2ccccc2)c(N2CCC(c3ccccc3)CC2)cc1N(CC)CCN(C)C,> 46
3,C=CC(C)(O)CC/C=C(\C)CCC=C(C)C (configuration not stated) [NEROLIDOL],> 46
4,CSCCC(NC(=O)C(Cc1c[nH]c2ccccc12)NC(=O)CCNC(=O)OC(C)(C)C)C(=O)NC(CC(=O)O)C(=O)NC(Cc1ccccc1)C(N)=O (configuration not stated) [Pentagastrin],> 46
5,CCC1(c2ccccc2)C(=O)N(COC)C(=O)N(COC)C1=O [ETEROBARBUM],> 46
6,COC(C)(C)CCCC(C)C/C=C/C(C)=C/C(=O)OC(C)C (configuration not stated) [Methoprene],> 46
7,CCCCC(=O)N(Cc1ccc(-c2ccccc2-c2nn[nH]n2)cc1)C(C(=O)O)C(C)C (configuration not stated) [VALSARTAN],> 46
8,CN1CCN(C(=O)O[C@H]2c3nccnc3C(=O)N2c2ccc(Cl)cn2)CC1 [Eszopiclone],> 46
9,NCCNc1cccc2ccccc12.[Cl-].[Cl-].[H+].[H+] [N-(1-Naphthyl)ethylenediamine 2HCl],> 46
10,Cc1ccccc1C(OCCN(C)C)c1ccccc1.O=C(O)CC(O)(CC(=O)O)C(=O)O (configuration not stated) [ORPHENADRINE CITRATE],> 46
11,CC[N+](CC)(CC(=O)Nc1c(C)cccc1C)Cc1ccccc1.O=C([O-])c1ccccc1,> 46
12,CN1CCN2c3ncccc3Cc3ccccc3C2C1 (configuration not stated) [Mirtazapine],> 46
13,COC(=O)\C1=C(/C)N\C(=C(/C1C2=C(Cl)C(=CC=C2)Cl)C(=O)OC(C)C)COC(N)=O (configuration not stated) [LEMILDIPINE],> 46
14,CCCN[C@@H](C)C(=O)Nc1ccccc1C [Prilocaine hydrochloride],> 46
15,c1cc2ccc3cccc4ccc(c1)c2c34 [PYRENE],> 46
16,Cc1cc2c(OCC(CNC(C)(C)C)OC(=O)c3ccccc3)cccc2[nH]1 (configuration not stated) [BOPINDOLOL],> 46
17,NC(C(=O)O)C(O)c1ccc(O)c(O)c1 (configuration not stated) [Droxidopa],> 46
18,CC[C@@]1(c2ccccc2)NC(=O)N(C)C1=O [MEPHENYTOIN],> 46
19,Cc1cccc(C)c1NC(=O)CC12CCCN1CCC2 [PILSICAINIDE HYDROCHLORIDE],> 46
20,Nc1ccc([S+](=O)([O-])Nc2ncccn2)cc1.[Ag] [sulfadiazine],> 46
21,O=C([O][Na])C(Cl)Cl [DCA],> 46

row,SMILES,IC50 of cell viability [µM]
1,Cc1nc[nH]c1CC1CCc2c(C)c3ccccc3n2C1=O (configuration not stated) [Fabesetron],> 46
2,Oc1cccc(-c2c3nc(c(-c4cccc(O)c4)c4ccc([nH]4)c(-c4cccc(O)c4)c4nc(c(-c5cccc(O)c5)c5ccc2[nH]5)CC4)C=C3)c1 [Temoporfin],> 46
3,CCN(CC)CCOC(=O)C(C)(c1ccccc1)c1ccccc1 [APROFENUM],> 46
4,CCOC(=O)Nc1ccc(NCc2ccc(F)cc2)nc1N.O=C(O)/C=C\C(=O)O [Flupirtine maleate],> 46
5,CO/N=C(/C(=O)NC1C(=O)N2C(C(=O)[O-])=C(CSc3nc(=O)c([O-])nn3C)CSC12)c1csc(N)n1.O.O.O.[Na+].[Na+] (configuration not stated) [CEFTRIAXONE SODIUM TRIHYDRATE],> 46
6,CCC(=O)O[C@@H]1CC[C@@H]2[C@@H]3CC\C4=C\C(=O)CC[C@@]4(C)[C@H]3CC[C@@]12C [Testosterone propionate],> 46
7,Oc1ccc([C@H]2CNCc3c2ccc(O)c3O)cc1O [SELANDOPAM HYDROCHLORIDE HYDRATE (ZELANDOPAM)],> 46
8,C[C@@H]1CN(c2c(F)c(F)c3c(=O)c(C(=O)O)cn(C4CC4)c3c2F)C[C@H](C)N1 [Orbifloxacin],> 46
9,O=C(NCC1CCCCN1)c1cc(OCC(F)(F)F)ccc1OCC(F)(F)F (configuration not stated) [FLECAINIDE],> 46
10,CCOC(=O)C1(c2ccccc2)CCN(CCC(C#N)(c2ccccc2)c2ccccc2)CC1 [Diphenoxylate],> 46
11,COc1ccc(C(c2ccc(OC)cc2)C(Cl)(Cl)Cl)cc1 [Methoxychlor],> 46
12,CCOc1cc(C=O)ccc1O [Ethylvanillin],> 46
13,CCCc1nc(C)c2c(=O)nc(-c3cc([S+](=O)([O-])N4CCN(CC)CC4)ccc3OCC)[nH]n12 [VARDENAFIL HYDROCHLORIDE],> 46
14,CC(O)C(N)C(=O)O (configuration not stated) [THREONINE],> 46
15,OC1=CC2=C([NH]C=C2CCCCN3CC\C(=C/C3)C4=CC=CC=C4)C=C1 [Roxindole hydrochloride],> 46
16,c1cnc2cc3c(cc2n1)C1CNCC3C1 [Varenicline],> 46
17,CC(N)C(=O)OC(C)(C)Cc1ccc(Cl)cc1 (configuration not stated) [ALAPROCLATE],> 46
18,O=C1C[N+]([O-])=C(c2ccccc2)c2cc(Cl)ccc2N1 [Demoxepam],> 46
19,CCN[C@@H]1C[C@H](N)[C@H](O[C@@H]2O\C(=C/C[C@H]2N)CN)[C@@H](O)[C@@H]1O[C@@H]3OC[C@@](C)(O)[C@@H](NC)[C@H]3O [Netilmicin sulfate],> 46
20,CCOC(=O)NC(O)C(Cl)(Cl)Cl (configuration not stated) [Carbocloral],> 46
